In patent US20220386606A1, “SPECIFICALLY SUBSTITUTED 3-PHENYL-5-SPIROCYCLOPENTYL-3-PYRROLIN-2-ONES AND THEIR USE AS HERBICIDES” (Bayer Aktiengesellschaft, priority 2019, published 2022):

Experiments:
VIOTR = assay: Pre-emergence herbicidal action against VIOTR; assay type: in vivo, Viola tricolor; settings: 320 g/ha
Description: (§1) Seeds of monocotyledonous and dicotyledonous weed plants and crop plants are laid out in sandy loam soil in wood-fiber pots and covered with soil. The compounds of the invention, formulated in the form of wettable powders (WP) or as emulsion concentrates (EC), are then applied to the surface of the covering soil as aqueous suspension or emulsion at a water application rate equating to 600 to 800 L/ha with addition of 0.2% wetting agent.
(§2) After the treatment, the pots are placed in a greenhouse and kept under good growth conditions for the trial plants. The damage to the test plants is scored visually after a test period of 3 weeks by comparison with untreated controls (herbicidal activity in percent (%): 100% activity=the plants have died, 0% activity=like control plants).

LOLRI [1] = assay: Pre-emergence herbicidal action against LOLRI (Table 8, titled post-emergence at 320 g/ha); assay type: in vivo, Lolium rigidum; settings: table stands in the pre-emergence section
Description: as §1, §2

SETVI [2] = assay: Post-emergence herbicidal action against SETVI; assay type: in vivo, Setaria viridis; settings: 80 g/ha, visual assessment about 3 weeks after treatment vs untreated controls
Procedure: (§3) Seeds of monocotyledonous and dicotyledonous weed and crop plants are laid out in sandy loam soil in wood-fiber pots, covered with soil and cultivated in a greenhouse under good growth conditions. 2 to 3 weeks after sowing, the test plants are treated at the one-leaf stage. The compounds of the invention, formulated in the form of wettable powders (WP) or as emulsion concentrates (EC), are then sprayed onto the green parts of the plants as aqueous suspension or emulsion at a water application rate equating to 600 to 800 l/ha with addition of 0.2% wetting agent. After the test plants have been left to stand in the greenhouse under optimal growth conditions for about 3 weeks, the action of the preparations is assessed visually in comparison to untreated controls (herbicidal action in percent (%): 100% activity=the plants have died, 0% activity=like control plants).

DIGSA [3] = assay: Pre-emergence herbicidal action against DIGSA; assay type: in vivo, Digitaria sanguinalis; settings: 320 g/ha, scored visually after 3 weeks vs untreated controls
Description: as §1, §2

ALOMY [4] = assay: Pre-emergence herbicidal action against ALOMY; assay type: in vivo, Alopecurus myosuroides; settings: 320 g/ha, scored visually after 3 weeks vs untreated controls
Description: as §1, §2

SETVI [5] = assay: Pre-emergence herbicidal action against SETVI; assay type: in vivo, Setaria viridis; settings: 320 g/ha, scored visually after 3 weeks vs untreated controls
Description: as §1, §2

ECHCG [6] = assay: Post-emergence herbicidal action against ECHCG; assay type: in vivo, Echinochloa crus-galli; settings: 80 g/ha, visual assessment about 3 weeks after treatment vs untreated controls
Procedure: as §3

DIGSA [7] = assay: Post-emergence herbicidal action against DIGSA; assay type: in vivo, Digitaria sanguinalis; settings: 80 g/ha, visual assessment about 3 weeks after treatment vs untreated controls
Procedure: as §3

LOLRI [8] = assay: Post-emergence herbicidal action against LOLRI; assay type: in vivo, Lolium rigidum; settings: 80 g/ha, visual assessment about 3 weeks after treatment vs untreated controls
Procedure: as §3

AVEFA [9] = assay: Pre-emergence herbicidal action against AVEFA; assay type: in vivo, Avena fatua; settings: 320 g/ha, scored visually after 3 weeks vs untreated controls
Description: as §1, §2

ECHCG [10] = assay: Pre-emergence herbicidal action against ECHCG; assay type: in vivo, Echinochloa crus-galli; settings: 320 g/ha, scored visually after 3 weeks vs untreated controls
Description: as §1, §2

ALOMY [11] = assay: Post-emergence herbicidal action against ALOMY; assay type: in vivo, Alopecurus myosuroides; settings: 80 g/ha, visual assessment after about 3 weeks
Procedure: as §3

AVEFA [12] = assay: Post-emergence herbicidal action against AVEFA; assay type: in vivo, Avena fatua; settings: 80 g/ha, visual assessment after about 3 weeks
Procedure: as §3

## CC#Cc1cc(Br)c(C2=C(OC(=O)C(C)C)C3(CCC(COCC)C3)NC2=O)c(CC)c1 (stereo not drawn) [Example P-43]
VIOTR
  Pre-emergence action against VIOTR in %: 100%

## CC#Cc1cc(Br)c(C2=C(O)C3(CCC(COCC)C3)NC2=O)c(OCC)c1 (stereo not drawn) [Example I-63]
LOLRI [1]
  Pre-emergence herbicidal action against LOLRI in %: 100%
SETVI [2]
  Post-emergence action against SETVI in %: 100%
DIGSA [3]
  Pre-emergence action against DIGSA in %: 100%
ALOMY [4]
  Pre-emergence action against ALOMY in %: 100%
SETVI [5]
  Pre-emergence action against SETVI in %: 100%
ECHCG [6]
  Post-emergence action against ECHCG in %: 100%
DIGSA [7]
  Post-emergence action against DIGSA in %: 90%
LOLRI [8]
  Post-emergence action against LOLRI in %: 90%
AVEFA [9]
  Pre-emergence action against AVEFA in %: 100%
ECHCG [10]
  Pre-emergence action against ECHCG in %: 100%
ALOMY [11]
  Post-emergence action against ALOMY in %: 100%
AVEFA [12]
  Post-emergence action against AVEFA in %: 80%

## CC#Cc1cc(C)c(C2=C(O)C3(CCC(COC)C3)NC2=O)c(OC)c1 (stereo not drawn) [Example I-33]
LOLRI [1]
  Pre-emergence herbicidal action against LOLRI in %: 100%
SETVI [2]
  Post-emergence action against SETVI in %: 100%
DIGSA [3]
  Pre-emergence action against DIGSA in %: 100%
ALOMY [4]
  Pre-emergence action against ALOMY in %: 100%
SETVI [5]
  Pre-emergence action against SETVI in %: 100%
ECHCG [6]
  Post-emergence action against ECHCG in %: 100%
DIGSA [7]
  Post-emergence action against DIGSA in %: 100%
LOLRI [8]
  Post-emergence action against LOLRI in %: 100%
VIOTR
  Pre-emergence action against VIOTR in %: 100%
AVEFA [9]
  Pre-emergence action against AVEFA in %: 80%
ALOMY [11]
  Post-emergence action against ALOMY in %: 100%
AVEFA [12]
  Post-emergence action against AVEFA in %: 100%

## C=CCOCC1CCC2(C1)NC(=O)C(c1c(C)cc(C#CC)cc1OC)=C2O (stereo not drawn) [Example I-45]
LOLRI [1]
  Pre-emergence herbicidal action against LOLRI in %: 100%
SETVI [2]
  Post-emergence action against SETVI in %: 100%
DIGSA [3]
  Pre-emergence action against DIGSA in %: 100%
ALOMY [4]
  Pre-emergence action against ALOMY in %: 80%
SETVI [5]
  Pre-emergence action against SETVI in %: 100%
ECHCG [6]
  Post-emergence action against ECHCG in %: 100%
DIGSA [7]
  Post-emergence action against DIGSA in %: 90%
VIOTR
  Pre-emergence action against VIOTR in %: 80%
ECHCG [10]
  Pre-emergence action against ECHCG in %: 100%
ALOMY [11]
  Post-emergence action against ALOMY in %: 90%
AVEFA [12]
  Post-emergence action against AVEFA in %: 80%

## C#CCOCC1CCC2(C1)NC(=O)C(c1c(C)cc(C#CC)cc1OC)=C2O (stereo not drawn) [Example I-76]
LOLRI [1]
  Pre-emergence herbicidal action against LOLRI in %: 100%
SETVI [2]
  Post-emergence action against SETVI in %: 100%
DIGSA [3]
  Pre-emergence action against DIGSA in %: 100%
ALOMY [4]
  Pre-emergence action against ALOMY in %: 100%
SETVI [5]
  Pre-emergence action against SETVI in %: 100%
ECHCG [6]
  Post-emergence action against ECHCG in %: 100%
DIGSA [7]
  Post-emergence action against DIGSA in %: 90%
LOLRI [8]
  Post-emergence action against LOLRI in %: 90%
VIOTR
  Pre-emergence action against VIOTR in %: 90%
ECHCG [10]
  Pre-emergence action against ECHCG in %: 100%
ALOMY [11]
  Post-emergence action against ALOMY in %: 90%
AVEFA [12]
  Post-emergence action against AVEFA in %: 90%

## CC#Cc1cc(Br)c(C2=C(OC(=O)OCC)C3(CCC(COCC)C3)NC2=O)c(OCC)c1 (stereo not drawn) [Example P-95]
LOLRI [1]
  Pre-emergence herbicidal action against LOLRI in %: 100%
SETVI [2]
  Post-emergence action against SETVI in %: 100%
DIGSA [3]
  Pre-emergence action against DIGSA in %: 100%
ALOMY [4]
  Pre-emergence action against ALOMY in %: 100%
SETVI [5]
  Pre-emergence action against SETVI in %: 100%
ECHCG [6]
  Post-emergence action against ECHCG in %: 100%
DIGSA [7]
  Post-emergence action against DIGSA in %: 80%
LOLRI [8]
  Post-emergence action against LOLRI in %: 90%
AVEFA [9]
  Pre-emergence action against AVEFA in %: 100%
ECHCG [10]
  Pre-emergence action against ECHCG in %: 100%
ALOMY [11]
  Post-emergence action against ALOMY in %: 100%
AVEFA [12]
  Post-emergence action against AVEFA in %: 80%

## CC#Cc1cc(C)c(C2=C(O)C3(CCC(COCC)C3)NC2=O)c(Br)c1 (stereo not drawn) [Example I-20]
LOLRI [1]
  Pre-emergence herbicidal action against LOLRI in %: 100%
SETVI [2]
  Post-emergence action against SETVI in %: 100%
DIGSA [3]
  Pre-emergence action against DIGSA in %: 100%
ALOMY [4]
  Pre-emergence action against ALOMY in %: 100%
SETVI [5]
  Pre-emergence action against SETVI in %: 100%
ECHCG [6]
  Post-emergence action against ECHCG in %: 100%
DIGSA [7]
  Post-emergence action against DIGSA in %: 90%
LOLRI [8]
  Post-emergence action against LOLRI in %: 100%
VIOTR
  Pre-emergence action against VIOTR in %: 100%
AVEFA [9]
  Pre-emergence action against AVEFA in %: 100%
ECHCG [10]
  Pre-emergence action against ECHCG in %: 100%
ALOMY [11]
  Post-emergence action against ALOMY in %: 100%

## CC#Cc1cc(F)c(C2=C(OC(=O)C(C)C)C3(CCC(COC)C3)NC2=O)c(OC)c1 (stereo not drawn) [Example P-66]
LOLRI [1]
  Pre-emergence herbicidal action against LOLRI in %: 90%
SETVI [2]
  Post-emergence action against SETVI in %: 100%
DIGSA [3]
  Pre-emergence action against DIGSA in %: 100%
ALOMY [4]
  Pre-emergence action against ALOMY in %: 100%
SETVI [5]
  Pre-emergence action against SETVI in %: 100%
ECHCG [6]
  Post-emergence action against ECHCG in %: 100%
DIGSA [7]
  Post-emergence action against DIGSA in %: 100%
LOLRI [8]
  Post-emergence action against LOLRI in %: 100%
AVEFA [9]
  Pre-emergence action against AVEFA in %: 100%
ECHCG [10]
  Pre-emergence action against ECHCG in %: 100%
ALOMY [11]
  Post-emergence action against ALOMY in %: 90%
AVEFA [12]
  Post-emergence action against AVEFA in %: 90%

## C#CCOCC1CCC2(C1)NC(=O)C(c1c(F)cc(C#CC)cc1OC)=C2O (stereo not drawn) [Example I-74]
LOLRI [1]
  Pre-emergence herbicidal action against LOLRI in %: 100%
SETVI [2]
  Post-emergence action against SETVI in %: 100%
DIGSA [3]
  Pre-emergence action against DIGSA in %: 100%
ALOMY [4]
  Pre-emergence action against ALOMY in %: 100%
SETVI [5]
  Pre-emergence action against SETVI in %: 100%
ECHCG [6]
  Post-emergence action against ECHCG in %: 100%
DIGSA [7]
  Post-emergence action against DIGSA in %: 90%
LOLRI [8]
  Post-emergence action against LOLRI in %: 90%
AVEFA [9]
  Pre-emergence action against AVEFA in %: 90%
ECHCG [10]
  Pre-emergence action against ECHCG in %: 100%
ALOMY [11]
  Post-emergence action against ALOMY in %: 90%
AVEFA [12]
  Post-emergence action against AVEFA in %: 80%

## CC#Cc1cc(F)c(C2=C(OC(=O)OCC)C3(CCC(COC)C3)NC2=O)c(OC)c1 (stereo not drawn) [Example P-63]
LOLRI [1]
  Pre-emergence herbicidal action against LOLRI in %: 100%
SETVI [2]
  Post-emergence action against SETVI in %: 100%
DIGSA [3]
  Pre-emergence action against DIGSA in %: 100%
ALOMY [4]
  Pre-emergence action against ALOMY in %: 100%
SETVI [5]
  Pre-emergence action against SETVI in %: 100%
ECHCG [6]
  Post-emergence action against ECHCG in %: 100%
DIGSA [7]
  Post-emergence action against DIGSA in %: 100%
LOLRI [8]
  Post-emergence action against LOLRI in %: 100%
AVEFA [9]
  Pre-emergence action against AVEFA in %: 90%
ECHCG [10]
  Pre-emergence action against ECHCG in %: 90%
ALOMY [11]
  Post-emergence action against ALOMY in %: 100%
AVEFA [12]
  Post-emergence action against AVEFA in %: 80%

## CC#Cc1cc(Br)c(C2=C(O)C3(CCC(COC)C3)NC2=O)c(OCC)c1 (stereo not drawn) [Example I-66]
LOLRI [1]
  Pre-emergence herbicidal action against LOLRI in %: 100%
SETVI [2]
  Post-emergence action against SETVI in %: 100%
DIGSA [3]
  Pre-emergence action against DIGSA in %: 100%
ALOMY [4]
  Pre-emergence action against ALOMY in %: 100%
SETVI [5]
  Pre-emergence action against SETVI in %: 100%
ECHCG [6]
  Post-emergence action against ECHCG in %: 100%
DIGSA [7]
  Post-emergence action against DIGSA in %: 90%
LOLRI [8]
  Post-emergence action against LOLRI in %: 100%
AVEFA [9]
  Pre-emergence action against AVEFA in %: 100%
ECHCG [10]
  Pre-emergence action against ECHCG in %: 100%
ALOMY [11]
  Post-emergence action against ALOMY in %: 100%
AVEFA [12]
  Post-emergence action against AVEFA in %: 80%
